Results as given in US20090142715A1, “LAMINATED RESIST USED FOR IMMERSION LITHOGRAPHY” (DAIKIN INDUSTRIES LTD., priority 2004, published 2009).
Where two headings read alike, the source gives them in different places.

Assay: Measurement of pKa value of monomer having hydrophilic functional group Y by NaOH titration
Assay type: physicochemical
Details: titration in water/acetone with NaOH, corrected by blank
Description: The method of measuring and calculating a pKa value is mentioned below using 1,1-bistrifluoromethyl-3-buten-1-ol:
In a water/acetone solution of 10/15 ml was poured 0.7865 g of CH2═CHCH2C(CF3)2OH, followed by stirring at room temperature. After it was confirmed that the solution was homogeneous, titration was carried out with 0.2 mole/L NaOH solution. A titration curve was obtained by adding the NaOH solution dropwise in increments of 0.15 ml and recording a pH value at every addition. An equivalence point was determined by an inflection point (maximum differential value of titration curve=dpH/dml) of the titration curve. In this case, the equivalence point was 14.5 ml. […] From a titration curve of water/acetone solution and aqueous solution which had been measured previously as a blank solution, a difference in a pH value derived from an electric potential difference between the solutions at titration of 7.25 ml was 1.29.
In the case of titration of 1.0865 g of CH2═CHCH2C(CF3)2OH by the same procedures as above, an equivalence point was 20.15 ml and a half of the equivalence point was 10.08 ml. A pH value at a half of the equivalence point was 10.78.
When the same procedures as above were carried out by changing the titration solution to about 0.05 mole/L NaOH, an equivalence point of 0.115 g of CH2═CHCH2C(CF3)2OH was 8.00 ml and a half of the equivalence point was 4.00 ml. A pH value at this time was 10.92.
With respect to the various fluorine-containing ethylenic monomers having OH group shown in Table 2, a pKa value was measured by the same procedures as above.

[1] = water/acetone solution, read-out: pKa

Row | pKa [1] | pKa | Compound
1 | 3.8 | – | O=C(O)C1(F)CC2C=CC1C2 (centres unmarked)
2 | – | 12.6 | 1,1,9,9-tetrahydro-2,5-bistrifluoromethyl-3,6-dioxa-8-nonenol
3 | – | 9.6 | C=CCC(O)(C(F)(F)F)C(F)(F)F [1,1-bistrifluoromethyl-3-buten-1-ol]
4 | 3.4 | – | C=C(F)C(=O)O [CH2═CF—COOH, α-fluoroacrylic acid]

Row | Compound | pKa [1] | pKa
5 | C=C(F)C(F)(F)OC(F)(C(F)(F)F)C(F)(F)OC(F)(C(=O)O)C(F)(F)F (centres unmarked) [perfluoro-(9,9-dihydro-2,5-bistrifluoromethyl-3,6-dioxa-8-nonenoic acid)] | – | 3.6
